The values that follow come from US20230371508A1, “COMPOSITIONS AND METHODS FOR KILLING INSECT AND NON-INSECT PESTS” (The United States of America, as represented by the …, priority 2018, published 2023).

A word on the LC50: it is the concentration lethal to half of the exposed cells or organisms.

For one series, the system named is H. halys eggs. Briefly: Ovicidal toxicity, direct spray on eggs. Type of series: in vivo. As to conditions: eggs sprayed, 10 days. The source says:
Ovicidal toxicities of MB and some compounds of formula 1: The aqueous solutions of one of the compounds of formula 1 with designated concentrations with different concentrations of active ingredient (AI) were separately stored in glass spray bottles according to a published procedure (Cuthbertson 2014). The eggs (10 for H. halys and 100 for P. xylostella) were laid on filter papers in Petri dishes. Different aqueous insecticidal solutions were sprayed on the surfaces of different eggs three times (˜0.5 mL) to completely cover the treatment areas. Then the Petri dishes were covered with lids and maintained in a fume hood for 10 days. The Petri dishes were then inspected for presence of nymph/larvae development or numbers of unhatched eggs.

The test system of series [1] is S. invicta workers. Here is the method: Fire ant bioassays were conducted in USDA, ARS Stoneville laboratory at 25° C., 80% R.H. with a 12:12 (L:D) photoperiod. Contact toxicities of MB and some compounds of formula 1 against fire ants: Topical application was used for contact toxicity bioassay. Only large workers were used for a purpose of relatively uniform body weight and ease of handling. For all compounds, acetone was used as a solvent. The solution was applied using a 0.779 μl capillary tube. Two experiments were conducted for assessing contact toxicity. […] In order to investigate the structure-activity relationship, LD50 values were also established for MB and EB. […] For each LD50 value, 5 doses of benzoates were used. Each dose was replicated 3 times. Each replicate consisted of 13 to 18 ants. Treated ants were placed in a 30-ml capped cup and dead ants were counted after 24 h.

For series [2] the following is noted: Sigma-Aldrich SDS; cited from earlier work.
For series [3], the system named is S. invicta workers. The series can be described thus: Fumigant toxicity in sealed glass flask. Type of series: in vivo, Solenopsis invicta. The settings on record: Solenopsis invicta, 24 h. The procedure: A 250-ml glass flask (the whole volume is 280 ml) was used to house worker ants in fumigant toxicity bioassays. Two micro-liter of acetone solution of the tested compound was applied onto a paraffin film, which was used to seal the flask with ants. The treated spot of the paraffin film faced the inside of the flask. The upper part of the flask was coated with Fluon® to prevent ants from contacting the test material. Two experiments were conducted. […] LC50 value was established using 5 dosages. Each dosage was replicated 3 times for each of 3 colonies. Each replicate consisted of 15 to 26 ants. Ants that could not stand by themselves were considered dead. Dead ants were counted after 24 h.

In another series the test system is D. suzukii. Briefly: Insecticidal activity on larvae and pupae development and adult emergence in pre-infested blueberries (dip). It is filed as in vivo, Drosophila suzukii. The settings on record: for Adults / Larvae / Pupae: pre-infested berries soaked 2 min in 1% solution, assessed after 10 days at room temperature, mean of three replicates (standard error). Here is the method:
Impacts of MB and other compounds on D. suzukii control: To investigate the acute toxicity of some compounds of formula 1 against D. suzukii, a published procedure was followed (Cuthbertson, A. G. S., et al., Insects, 5: 488-498 (2014)). First, mixed-sex adults D. suzukii (100) were introduced into a plastic cage (30×30×30 cm) and reared on blueberries (100) for 4 days. After that, the infested blueberries were taken out from the cage. Half of the blueberries (50) were dipped in 100 mL aqueous emulsion of each compound listed in Table 1 at 1% concentration for 2 min as treatment, while the other half of the blueberries (50) were dipped in DI water for 2 min as blank control. Then the corresponding blueberries were separately taken out, placed in two different Petri dishes, and allowed to air dry for 2 h. Second, treatment and blank control blueberries were respectively stored in two plastic cups (32 oz) with closed caps and incubated at room temperature for 10 days. The emergence of adults was then subsequently assessed. The developments of larvae and pupae were further inspected by dissection of the treatment and blank control berries. Each treatment and blank control was repeated three times.

For another series, the system named is H. halys nymphs. Briefly: Nymphicidal toxicity, treated filter paper in glass vial. Type of series: in vivo. Here is the method:
Toxicities of MB, some compounds of formula 1, and commercial pesticides on H. halys nymphs: The bioassays were carried out in glass vials (20 mL), following a published procedure (Nielsen, A. L., et al., J. Econ. Entomol., 101: 1439-1442 (2008)). Filter paper was cut into round shape pieces (2.4 cm diameter). 50 μL acetone solution of one derivative or commercial pesticide with different concentrations was loaded onto the filter paper evenly, and the filter paper was dried for 1 min and then put into the bottom of vial. A small piece of green bean was put on the filter paper in the vial as food source. Different stages of H. halys nymphs were introduced into the vial and capped with a cotton ball. For each stage, 30 nymphs were used for each amount. For the nymphs of the first instar, 10 nymphs were put into 1 vial. For the nymphs of the second and third instar, 5 nymphs were put into 1 vial. For the nymphs of the fourth instar, 3 nymphs were put into 1 vial. For the nymphs of the fifth instar, 2 nymphs were put into 1 vial. The mortality was assessed after 24 hr.

Another series concerns L. dispar larvae. The series can be described thus: Larvicidal toxicity, treated filter paper in Petri dish. Type of series: in vivo. The procedure: Toxicities of MB and some compounds of formula 1 on L. dispar larvae: The bioassays were carried out in plastic Petri dish loaded with filter paper, following a published procedure (Nielsen 2008). 600 μL acetone solution of one derivative with different concentrations was loaded onto the filter paper (90 mm diameter) evenly, and the filter paper was dried for 2 min and then put into the bottom of Petri dish. 10 L. dispar larvae were put onto the Petri dish and covered with a lid. 30 larvae were used for each amount. The mortality was assessed after 24 hr.

Values after ≈ are worked out from the molar mass of the structure shown. “Also recorded” adds a separate entry of the source. Like-named read-outs stand apart in the source and are kept apart here.

For the molecule `COC(=O)c1cccc(OC)c1` [M3MOB, methyl 3-methoxybenzoate], the “LC50 (95% CL)” value is reported as 0.016 (0.008-0.026) mg/cm^2 in the series with H. halys eggs; 1.509 (1.322-1.792) μL/vial with H. halys nymphs (3rd stage nymphs, 24 hr); 0.234 (0.216-0.258) mg/cm^2 in the series with L. dispar larvae (1st stage larvae, 24 hr). The LD50 in the series on S. invicta workers [1] (colony 1, 24 h) was 112.72 μg/ant; in the series on S. invicta workers [1] (colony 2, 24 h), 81.78 μg/ant; in the series on S. invicta workers [1] (colony 3, 24 h) it was 47.52 μg/ant. For the same molecule, in the series on S. invicta workers [1] (dose 77.9 μg/ant, 24 h), the “increase of mean mortality compared with MB” value is on record as 6 times. Moreover, the mean mortality with S. invicta workers [1] (dose 77.9 μg/ant, 24 h) worked out at 47.23%. For the same molecule, in series [2], the “hazard according to Safety Data Sheet (SDS) from the producer” value was “not even considered as a hazardous substance”. Further, the LC50 in the series with S. invicta workers [3] (colony 1, 24 h) came to 0.64 µg/mL (≈ 3.85 µM); in the series on S. invicta workers [3] (colony 2, 24 h) it was 0.54 µg/mL (≈ 3.25 µM); in the series with S. invicta workers [3] (colony 3, 24 h), 0.65 µg/mL (≈ 3.91 µM); in the series on S. invicta workers [3] (read-out: mean LC50 value, mean over colonies, 24 h) it was 0.61 µg/mL (≈ 3.67 µM). In addition, the mortality at 1.43 µg/mL with S. invicta workers [3] (read-out: mean mortality, dosage 1.43 μg/ml, 24 h) is roughly 100%. The Adults with D. suzukii turned out to be 0. The molecule also gave a Larvae with D. suzukii of 0. Further, the Pupae in the series with D. suzukii is given as 0. For the same molecule, the “decreased toxicities compared with MB” value in the series on L. dispar larvae (from LC50 values) came out at 50%.

`CCCCCCOC(=O)c1ccccc1` [nHB, n-hexyl benzoate] came in with an LD50 in the series with S. invicta workers [1] (colony 1, 24 h) of 37.1 μg/ant. In addition, in the series with S. invicta workers [1] (colony 2, 24 h), the LD50 was 42.23 μg/ant. For the same molecule, in the series on S. invicta workers [1] (colony 3, 24 h), the LD50 is 28.64 μg/ant. In the series with S. invicta workers [1] (in vivo), the “contact toxicity against S. invicta (in words)” value was “comparable results; also recorded: potent contact toxicities”. Further, the “hazard according to Safety Data Sheet (SDS) from the producer” value in series [2] is “neither known OSHA hazards nor aquatic toxicity”. Further, the “insecticidal toxicity against D. suzukii (in words)” value with D. suzukii (1% concentration on 4 days pre-infested blueberries, 10 days incubation) is listed as “did not show any insecticidal activities”. For the same molecule, in the series on D. suzukii, the Adults is recorded as 33.7(7.4), the Larvae was 7.0(1.0) and the Pupae is reported as 40.3(7.0). Besides, the “toxicity against H. halys nymphs (in words)” value in the series with H. halys nymphs (in vivo) is “did not show toxicities”. Moreover, the “larvicidal toxicity against L. dispar (in words)” value in the series on L. dispar larvae (in vivo) is reported as “did not show any toxicities”.
